The term IC50 denotes the concentration that inhibits the measured activity by half.

Values joined by “and” are separate entries in the source; they are usually repeats but may differ in a detail not shown here. Identical values can stand only once.

From US12145927B2 (BRISTOL-MYERS SQUIBB COMPANY, priority 2018, dated 2024) come the findings set out here.

The experiment addresses T1, human IDO1 (Homo sapiens, UniProt P14902).
T1 construct: expressed in transfected cells
Nature of the experiment: IDO inhibition assay in human IDO1/HEK293 cells (IDO1 HEK Human). In kind it is cell-based. Conditions: HEK293 cells stably expressing human IDO1; 20 hours incubation; absorbance at 490 nm after Ehrlich reagent. Put shortly: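 Kynurenine output of stably IDO1-transfected HEK293 cells was measured by absorbance at 490 nm after mixing supernatant with 0.2% Ehrlich reagent, following TCA stop (0.2% final, 50° C., 30 min). Cells were incubated 20 hours with compound. Inhibition was scaled between DMSO and 500 nM reference standard.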

T1 sequence (P14902 whole entry): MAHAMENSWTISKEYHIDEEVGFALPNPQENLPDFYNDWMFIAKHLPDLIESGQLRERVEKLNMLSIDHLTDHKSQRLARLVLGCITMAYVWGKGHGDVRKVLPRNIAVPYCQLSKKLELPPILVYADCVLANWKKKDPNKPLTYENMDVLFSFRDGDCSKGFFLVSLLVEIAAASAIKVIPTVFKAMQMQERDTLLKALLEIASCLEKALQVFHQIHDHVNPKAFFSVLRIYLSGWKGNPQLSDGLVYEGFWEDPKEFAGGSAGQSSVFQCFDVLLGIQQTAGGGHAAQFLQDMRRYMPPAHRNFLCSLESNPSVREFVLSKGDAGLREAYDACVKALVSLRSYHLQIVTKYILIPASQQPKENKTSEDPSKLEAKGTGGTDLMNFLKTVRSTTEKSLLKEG

The compound `CC(=O)NS(=O)(=O)c1ccccc1-c1cc(NC(=O)Nc2ccc(C)cc2)c2c(c1)C(c1ccccc1)CCCO2` (single isomer, unassigned) [59 (En. 2), N-((2-(5-phenyl-9-(3-(p-tolyl)ureido)-2,3,4,5-tetrahydrobenzo[b]oxepin-7-yl)phenyl)sulfonyl)acetamide] registered an IC50 of 280 nM.

`O=C(Nc1ccccc1F)Nc1cc(-c2ccccc2-c2nnn[nH]2)cc2c1OCCCC2C1CC1` (single isomer, unassigned) [38 (En. 1), 1-(7-(2-(1H-tetrazol-5-yl)phenyl)-5-cyclopropyl-2,3,4,5-tetrahydrobenzo[b]oxepin-9-yl)-3-(2-fluorophenyl)urea] displayed an IC50 of 223 nM.

Compound `Cc1cnc(Nc2cc(-c3ccccc3-c3nnn[nH]3)cc3c2OCCCC3c2ccccc2)nc1` (single isomer, unassigned) [55 (En. 2), N-(7-(2-(1H-tetrazol-5-yl)phenyl)-5-phenyl-2,3,4,5-tetrahydrobenzo[b]oxepin-9-yl)-5-methylpyrimidin-2-amine] had an IC50 of 77.6 nM.

As for `COC(=O)c1c(C)cccc1-c1cc(NC(=O)Nc2ccc(C)cc2)c2c(c1)C(c1ccccc1)CCCO2` (stereo not shown) [Example 66, methyl 2-methyl-6-(5-phenyl-9-(3-(p-tolyl)ureido)-2,3,4,5-tetrahydrobenzo[b]oxepin-7-yl)benzoate], 327 nM corresponded to half-maximal inhibition (IC50).

`Cc1ccc(NC(=O)Nc2cc(-c3cc(F)ccc3C(=O)O)cc3c2O[C@@H](C)[C@@H]3CCC(F)(F)F)cc1` (relative stereo) [Example 119, rel-4-fluoro-2-((2R,3S)-2-methyl-7-(3-(p-tolyl)ureido)-3-(3,3,3-trifluoropropyl)-2,3-dihydrobenzofuran-5-yl)benzoic acid] yielded an IC50 of 785 nM.

`Cc1ccc(NC(=O)Nc2cc(-c3ccccc3-c3nnn[nH]3)cc3c2OCC(O)C(O)C3c2ccccc2)cc1` (single isomer, unassigned) [9 (En. 1), 1-(7-(2-(1H-tetrazol-5-yl)phenyl)-3,4-dihydroxy-5-phenyl-2,3,4,5-tetrahydrobenzo[b]oxepin-9-yl)-3-(p-tolyl)urea]: the IC50 is over 6000 nM.

`Cc1ccc(NC(=O)Nc2cc(-c3ccccc3-c3nc(=O)o[nH]3)cc3c2OCCCC3C2CC2)cc1` (single isomer, unassigned) [Example 33-1, 1-(5-cyclopropyl-7-(2-(5-oxo-2,5-dihydro-1,2,4-oxadiazol-3-yl)phenyl)-2,3,4,5-tetrahydrobenzo[b]oxepin-9-yl)-3-(p-tolyl)urea]: the IC50 stood at 1.2 nM.

Turning to `C=C[C@@H]1Oc2c(NC(=O)Nc3ccc(C)cc3)cc(-c3ccccc3-c3nnn[nH]3)cc2[C@H]1c1ccccc1` (single isomer, unassigned) [Example 89, 1-((trans)-5-(2-(1H-tetrazol-5-yl)phenyl)-3-phenyl-2-vinyl-2,3-dihydrobenzofuran-7-yl)-3-(p-tolyl)urea], the IC50 came out at 13 nM.

In turn, `Cc1ccc(CC(=O)Nc2cc(-c3ccccc3-c3nnn[nH]3)cc3c2OCCCC3C(C)C)cc1` (racemic) [25 (Rac), N-(7-(2-(1H-tetrazol-5-yl)phenyl)-5-isopropyl-2,3,4,5-tetrahydrobenzo[b]oxepin-9-yl)-2-(p-tolyl)acetamide] displayed a concentration for half-maximal inhibition (IC50) of 29.9 nM. Against the preceding compound, the IC50 is about 2.3-fold higher.

On to `CC[C@@H]1Oc2c(NC(=O)Nc3ccc(C)cc3)cc(-c3ccccc3-c3nnn[nH]3)cc2[C@H]1c1ccccc1` (racemic) [Example 90, (+/−)-1-((trans)-5-(2-(1H-tetrazol-5-yl)phenyl)-3-phenyl-2-ethyl-2,3-dihydrobenzofuran-7-yl)-3-(p-tolyl)urea], for which half-maximal inhibition (IC50) was put at 18 nM.

The compound `Fc1ccc2nc(Nc3cc(-c4ccccc4-c4nnn[nH]4)cc4c3OCCCC4c3ccccc3)sc2c1` (single isomer, unassigned) [57 (En. 2), N-(7-(2-(1H-tetrazol-5-yl)phenyl)-5-phenyl-2,3,4,5-tetrahydrobenzo[b]oxepin-9-yl)-6-fluorobenzo[d]thiazol-2-amine] came in with a half-maximal inhibitory concentration (IC50) of 189 nM.

Take `O=C(Cc1ccccc1F)Nc1cc(-c2ccccc2-c2nnn[nH]2)cc2c1OCCCC2C1CC1` (single isomer, unassigned) [40 (En. 1), N-(7-(2-(1H-tetrazol-5-yl)phenyl)-5-cyclopropyl-2,3,4,5-tetrahydrobenzo[b]oxepin-9-yl)-2-(2-fluorophenyl)acetamide]: the half-maximal inhibitory concentration (IC50) came out at 219 nM. This IC50 and that of the compound before are within 1.5-fold of each other.

Turning to `Cc1ccc(NC(=O)Nc2cc(-c3ccccc3-c3nnn[nH]3)cc3c2OCCC(C)C3c2ccccc2)cc1` (single isomer, unassigned) [Example 45, 1-(7-(2-(1H-tetrazol-5-yl)phenyl)-4-methyl-5-phenyl-2,3,4,5-tetrahydrobenzo[b]oxepin-9-yl)-3-(p-tolyl)urea], the IC50 was 106 nM and 288 nM.

As to `Cc1ccc(NC(=O)Nc2cc(-c3cc(C)ccc3C(=O)O)cc3c2OCCCC3c2ccccc2)cc1` (single isomer, unassigned) [Example 68, 4-methyl-2-(5-phenyl-9-(3-(p-tolyl)ureido)-2,3,4,5-tetrahydrobenzo[b]oxepin-7-yl)benzoic acid], the IC50 amounted to 14.4 nM.

`C=CC1Oc2c(NC(=O)Nc3ccc(C)cc3)cc(-c3cc(F)ccc3C(=O)O)cc2C1c1ccccc1` (racemic) [Example 98] showed an IC50 of 87 nM.

`Cc1ccc(NC(=O)Nc2cc(-c3ccccc3-c3nnn[nH]3)cc3c2OCCC(C)C3C)cc1` (mixture of isomers) [Example 69, 1-(7-(2-(1H-tetrazol-5-yl)phenyl)-4,5-dimethyl-2,3,4,5-tetrahydrobenzo[b]oxepin-9-yl)-3-(p-tolyl)urea] yielded a concentration for half-maximal inhibition (IC50) of 14.6 nM.

With `Cc1ccc(NC(=O)Nc2cc(-c3ccccc3S(=O)(=O)NC(=O)c3ccccc3)cc3c2OCCCC3c2ccccc2)cc1` (single isomer, unassigned) [60 (En. 1), N-((2-(5-phenyl-9-(3-(p-tolyl)ureido)-2,3,4,5-tetrahydrobenzo[b]oxepin-7-yl)phenyl)sulfonyl)benzamide], the half-maximal inhibitory concentration (IC50) was over 6000 nM.

With `c1ccc(C2CCCOc3c(Nc4nc5ccccc5o4)cc(-c4ccccc4-c4nnn[nH]4)cc32)cc1` (single isomer, unassigned) [53 (En. 2), N-(7-(2-(1H-tetrazol-5-yl)phenyl)-5-phenyl-2,3,4,5-tetrahydrobenzo[b]oxepin-9-yl) benzo[d] oxazol-2-amine], inhibition was half-maximal at 1.3 nM (IC50).

The compound `Cc1nc2ccc(Nc3cc(-c4ccccc4-c4nnn[nH]4)cc4c3OCCCC4c3ccccc3)cc2s1` (single isomer, unassigned) [Example 71, N-(7-(2-(1H-tetrazol-5-yl)phenyl)-5-phenyl-2,3,4,5-tetrahydrobenzo[b]oxepin-9-yl)-2-methylbenzo[d]thiazol-6-amine] yielded an IC50 of 3.1 nM.

As to `Cc1ccc(NC(=O)Nc2cc(-c3ccccc3-c3nnn[nH]3)cc3c2OCCC(C)C3c2ccccc2)cc1` (single isomer, unassigned) [Example 46, 1-(7-(2-(1H-tetrazol-5-yl)phenyl)-4-methyl-5-phenyl-2,3,4,5-tetrahydrobenzo[b]oxepin-9-yl)-3-(p-tolyl)urea], the IC50 stood at 0.78 nM.

As to `CC(=O)NS(=O)(=O)c1ccccc1-c1cc(NC(=O)Nc2ccc(C)cc2)c2c(c1)C(c1ccccc1)CCCO2` (single isomer, unassigned) [Example 58, N-((2-(5-phenyl-9-(3′-(p-tolyl)ureido)-2,3,4,5-tetrahydrobenzo[b]oxepin-7-yl)phenyl)sulfonyl)acetamide], the IC50 is 1360 nM.

As for `C=C[C@H]1Oc2c(NC(=O)Cc3ccc(C)cc3)cc(-c3ccccc3-c3nnn[nH]3)cc2[C@@H]1c1ccccc1` (racemic) [Example 91, (+/−)-N-((trans)-5-(2-(1H-tetrazol-5-yl)phenyl)-3-phenyl-2-vinyl-2,3-dihydrobenzofuran-7-yl)-2-(p-tolyl)acetamide], the concentration for half-maximal inhibition (IC50) worked out at 89 nM.

Compound `Cc1ccc(NC(=O)Nc2cc(-c3ccccc3-c3nnn[nH]3)cc3c2O[C@H](C)[C@H]3c2ccccc2)cc1` (relative stereo) [Example 115, rel-1-((2R,3 S)-5-(2-(1H-tetrazol-5-yl)phenyl)-2-methyl-3-phenyl-2,3-dihydrobenzofuran-7-yl)-3-(p-tolyl)urea] yielded an IC50 of 28 nM.

In turn, `Cc1ccc(-c2nnn[nH]2)c(-c2cc(Nc3ccc(Cl)c(F)c3)c3c(c2)C(c2ccccc2)CCCO3)c1` (single isomer, unassigned) [Example 76, N-(4-chloro-3-fluorophenyl)-7-(5-methyl-2-(1H-tetrazol-5-yl)phenyl)-5-phenyl-2,3,4,5-tetrahydrobenzo[b]oxepin-9-amine] registered a 50% inhibitory concentration (IC50) of 8.3 nM.

As to `O=C(Nc1ccccc1F)Nc1cc(-c2ccccc2-c2nnn[nH]2)cc2c1OCCCC2c1ccccc1` (single isomer, unassigned) [10 (En. 1), 1-(7-(2-(1H-tetrazol-5-yl)phenyl)-5-phenyl-2,3,4,5-tetrahydrobenzo[b]oxepin-9-yl)-3-(2-fluorophenyl)urea], 1450 nM corresponded to half-maximal inhibition (IC50).

`Cc1ccc(NC(=O)Nc2cc(-c3ccccc3-c3nnn[nH]3)cc3c2O[C@@H](C)[C@H]3c2ccccc2)cc1` (relative stereo) [Example 113, rel-1-((2R,3R)-5-(2-(2H-tetrazol-5-yl)phenyl)-2-methyl-3-phenyl-2,3-dihydrobenzofuran-7-yl)-3-(p-tolyl)urea] had an IC50 of 77 nM. Against the preceding compound, the IC50 is about 19-fold lower.

In turn, `CCC(C)C1CCCOc2c(NC(=O)Cc3ccc(C)cc3)cc(-c3ccccc3-c3nnn[nH]3)cc21` (single isomer, unassigned) [30 (Dia. mix 2), N-(7-(2-(1H-tetrazol-5-yl)phenyl)-5-(sec-butyl)-2,3,4,5-tetrahydrobenzo[b]oxepin-9-yl)-2-(p-tolyl)acetamide] gave an IC50 of 11.7 nM.

Compound `Cc1cc(NC(=O)Nc2cc(-c3ccccc3-c3nnn[nH]3)cc3c2OCCCC3c2ccccc2)no1` (stereo not shown) [Example 15, 1-(7-(2-(1H-tetrazol-5-yl)phenyl)-5-phenyl-2,3,4,5-tetrahydrobenzo[b]oxepin-9-yl)-3-(5-methylisoxazol-3-yl)urea] registered an IC50 of 232 nM.
